In the test the target is Platelet-derived growth factor receptor alpha (Homo sapiens, UniProt P16234). The test is described as follows: PDGFRα Kinase Assay. The protocol: The PDGFRα enzyme assays were conducted per the manufacturer's directions (Promega PDGFRα Kinase Enzyme System and ADP Glo Assay Cat #V8011). […] 20 ng of purified PDGFRα protein was added to the test article. […] ADP-Glo was added to halt the kinase reaction and deplete the remaining ATP. Kinase detection reagent, containing luciferase and luciferin, was used to convert the ADP signal into luminescence. Luminescence was measured using a Molecular Devices Spectramax ID5 and compared to a standard curve to determine kinase activity. IC50s were calculated using Prism 9, Graphpad software.

SMILES strings stand for the structures. pIC50: −log10 of the molar value.

Chain of Platelet-derived growth factor receptor alpha (P16234 whole entry): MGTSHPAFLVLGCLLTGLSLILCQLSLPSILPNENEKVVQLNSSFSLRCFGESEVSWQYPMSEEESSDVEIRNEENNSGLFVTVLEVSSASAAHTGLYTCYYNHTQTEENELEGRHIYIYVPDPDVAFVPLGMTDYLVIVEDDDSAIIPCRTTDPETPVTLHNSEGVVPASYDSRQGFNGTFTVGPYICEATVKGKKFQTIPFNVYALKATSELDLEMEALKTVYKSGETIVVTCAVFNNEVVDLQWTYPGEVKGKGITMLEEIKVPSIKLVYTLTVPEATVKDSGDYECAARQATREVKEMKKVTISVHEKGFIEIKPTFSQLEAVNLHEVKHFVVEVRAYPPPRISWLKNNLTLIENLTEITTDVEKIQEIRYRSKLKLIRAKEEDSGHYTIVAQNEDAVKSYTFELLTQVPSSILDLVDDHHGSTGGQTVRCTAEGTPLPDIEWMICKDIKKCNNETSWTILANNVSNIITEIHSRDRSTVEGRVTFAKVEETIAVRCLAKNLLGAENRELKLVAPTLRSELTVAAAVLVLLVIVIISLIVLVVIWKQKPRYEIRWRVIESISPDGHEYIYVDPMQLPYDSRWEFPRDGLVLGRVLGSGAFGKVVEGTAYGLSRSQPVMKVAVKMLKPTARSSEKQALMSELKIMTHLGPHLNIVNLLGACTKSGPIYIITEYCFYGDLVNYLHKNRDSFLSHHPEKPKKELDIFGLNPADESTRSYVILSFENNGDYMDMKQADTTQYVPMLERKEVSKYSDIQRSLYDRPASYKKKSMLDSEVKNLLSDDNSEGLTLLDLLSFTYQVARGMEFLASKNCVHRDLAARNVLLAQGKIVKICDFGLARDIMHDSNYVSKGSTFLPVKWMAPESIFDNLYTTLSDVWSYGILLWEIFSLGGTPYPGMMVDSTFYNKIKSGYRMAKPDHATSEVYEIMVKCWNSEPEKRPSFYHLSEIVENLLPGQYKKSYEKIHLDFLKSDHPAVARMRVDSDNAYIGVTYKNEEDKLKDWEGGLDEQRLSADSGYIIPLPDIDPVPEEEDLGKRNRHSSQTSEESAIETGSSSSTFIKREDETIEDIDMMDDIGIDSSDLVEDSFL

One may read the pIC50 as −log10 of the IC50, conventionally taken in molar units. Higher therefore signals a low IC50. For the compound `CN(CCCN(C)c1cnn2cc(-c3cnn(C)c3)ccc12)c1ncc(Cc2ccccc2)cn1`, the pIC50 is below 5.00.
On to `Cn1cc(-c2ccn3c(N4CCN(C(=O)OC(C)(C)C)CC4)cnc3n2)cn1` [US20250129067, Compound 87], for which the pIC50 was 5.23.
For `Cn1cc(-c2ccc3c(N4CCN(c5ncc(C(O)Cc6ccccc6)cn5)CC4)cnn3c2)cn1` (stereo not drawn) [US20250129067, Compound 167] the value was 6.97.
